The text below walks through data of patent publication US9456555B2, “Agent for treating grape vine wood” (Financiere Mercier, priority 2011, dated 2016).

Series [1] relates to Botryosphaeria obtusa, Botryosphaeria dothidea, Eutypa lata, Fomitiporia punctata, Phaeacremonium aleophilum, Phaeomonelia chlamydospora, Phaeoacremonium spp. …. The series can be described thus: Comparative in vivo test of wood disinfection, PCR analysis for presence of 8 fungi. Also on record: species or system grapevine. Conditions: immersion 12 h. As to the method: The in vivo test consisted of evaluating a set of 1025 plants derived from 4 rootstocks and 5 different varieties (to limit the varietal effect). Samples of the seedlings were taken before and after treatment. The treatment consisted of immersing the wood in the various solutions under test for 12 h, i.e. the usual rehydration time of the wood in the nursery (overnight). The samples of wood before and after treatment were analyzed, by extracting the total DNA of the wood samples taken, and evaluation by molecular diagnostics (PCR analysis) for the presence or absence of these 8 fungi: Botryosphaeria obtusa, Botryosphaeria dothidea, Eutypa lata, Fomitiporia punctata, Phaeacremonium aleophilum, Phaeomonelia chlamydospora, Phaeoacremonium spp. and Cylindrocarpon destructans. […] If nothing is indicated, it is because it was never found.

Series [2] deals with 8 fungi referenced as pathogens and associated with various diseases of the wood. The series can be described thus: Comparative in vitro test on PDA medium, mycelium growth. Conditions: 10 ml solution left for 12 h on PDA; observed several weeks, about 25° C.; neutral anolyte 100%. Type of series: cell-based. The protocol:
That is why an in vitro test was carried out, in order to compare the effect of water, hydrogen peroxide, desogerm and the neutral anolyte (100%) on 8 fungi referenced as pathogens and associated with various diseases of the wood. Strains of the 8 fungi mentioned above were deposited on culture medium with low discrimination (PDA—Potato Dextrose Agar—Medium). Then 10 ml of each solution was added to Petri dishes with the inoculated strains of fungi, and left for 12 h.

The test system of another series is grapevine seedlings. The series can be described thus: Percentage of recovery (take) after planting. Format: in vivo. From the text: The result of recovery (take) after planting (growth of the plants) is very important, as the treatment must not be injurious for the grapevine seedlings.

`OO` [H2O2, hydrogen peroxide]: the “fungus found at least once among the individuals evaluated (PCR)” value in series [1] (Merlot.N (182), with THW (50° C.-45 min)) was “B.obt”; in series [1] (R110 (151), with THW (50° C.-45 min)), “B.obt”; in series [1] (SO4(203), with THW (50° C.-45 min)) it was “B.obt”; in series [1] (SO4(203), without THW) it was “E.lata”. For the same molecule, the “growth of the fungi (radius of mycelium)” value in series [2] is “a certain efficacy”. Besides, the “Percentage of recovery of the treated seedlings” value in the series with grapevine seedlings (8 days after planting) is 59%; in the series with grapevine seedlings (20 days after planting), 94.8%. Further, the “alteration of the wood” value in the series on grapevine seedlings (contact with the cuttings during the rehydration phase) is “alters the wood”.
